From patent US20130303576A1, “ENZYME INHIBITORS” (priority 2009, published 2013)

Columns and labels:
U937 cells = test: U937 cell inhibition assay (WST-1 cell viability); type: cell-based; settings: for times more potent in the monocytic cell line (U937) than the non-monocytic cell line (Hut78): U937 versus Hut78; for potency in the U937 cellular assay compared with the parent compound: versus parent compound A
Method: (§1) Cancer cell lines (U937 and HUT) growing in log phase were harvested and seeded at 1000-2000 cells/well (100 μl final volume) into 96-well tissue culture plates. Following 24 h of growth cells were treated with Compound. Plates were then re-incubated for a further 72-98 h before a WST-1 cell viability assay was conducted according to the suppliers (Roche Applied Science) instructions.
(§2) Data were expressed as a percentage inhibition of the control, measured in the absence of inhibitor, as follows:
(§3) % inhibition=100−[(S^i/S^o)×100]
(§4) where S^i is the signal in the presence of inhibitor and S^o is the signal in the presence of DMSO.
(§5) Dose response curves were generated from 8 concentrations (top final concentration 10 μM, with 3-fold dilutions), using 6 replicates.
(§6) IC50 values were determined by non-linear regression analysis, after fitting the results to the equation for sigmoidal dose response with variable slope (% activity against log concentration of Compound), using Graphpad Prism software.
(§7) IC50 results were allocated to one of 3 ranges as follows: […]

HUT78 cells = test: HUT cell inhibition assay (WST-1 cell viability); type: cell-based; settings: read-out: Inhibition of proliferation in HUT78 cells (IC50 nM)
Method: as §1, §2, §3, §4, §5, §6, §7

Row | SMILES | times more potent in the monocytic cell line (U937) than the non-monocytic cell line (Hut78) (U937 cells) | potency in the U937 cellular assay compared with the parent compound (U937 cells) | IC50 (HUT78 cells)
1 | CC(C)CC(C)(NCc1ccc(CCC(=O)NO)cc1)C(=O)OC1CCCC1 (racemic) [Example 16, Cyclopentyl N-{4-[3-(hydroxyamino)-3-oxopropyl]benzyl}-2-methyl-D,L-leucinate] | 30 times | significantly more potent | 0.04 nM
2 | O=C(CCc1ccc(CNC2(C(=O)OC3CCCC3)CCCC2)cc1)NO [Example 14, Cyclopentyl 1-({4-[3-hydroxyamino)-3-oxopropyl]benzyl}amino) cyclopentanecarboxylate] | 30 times | significantly more potent | –
